The test system of test [1] is adjuvant arthritic rats. The test can be described thus: adjuvant arthritis test, evaluation of paw volume of the non-injected hind paw. In kind it is in vivo, female Wistar, Lewis rats. The settings on record: for inhibition at 50 mg/kg: Acetaminophen 50 mg/kg/day alone; for inhibition at 200 mg/kg: Acetaminophen 200 mg/kg/day alone; for inhibition at 800 mg/kg: Acetaminophen 800 mg/kg/day alone. From the text: (§1) The efficacy of the novel combination of this invention in inhibiting inflammation and osteogenic degeneration is particularly seen in the adjuvant arthritis test. […] The adjuvant arthritis test, a test in which adjuvant arthritis which results both in inflammation and osteogenic changes is induced by Mycobacterium butvricum and in which the effect of the test compounds on each effect can be Determined, is considered to be .most useful for evaluation of compounds which may be suitable for the treatment of rheumatoid arthritis and other arthritic diseases. The test procedure, in which the effect on inflammation is determined by paw volume changes and the effect on osteogenic changes is determined by microscopic observation, is described by Wong et al, in J. Pharmacol.Exp.Ther. 185, 127-138, 1973, and is employed in the present determination of the potentiation of the antiarthritic properties of 5-aroyl-l-loweralkyl-pyrrole-2-acetic acid derivatives by aspirin or acetaminophen.
(§2) Briefly, in this procedure, adjuvant arthritis is induced in female Wistar, Lewis rats (Charles River Breeding Laboratories. Inc., Wiimington, Mass.) weighing 160-190 gm by a single subcutaneous injection of 0.75 mg Mycobacterium butyricum (Difco) into the left hind paw. The non-injected hind paw remains a normal size for the first seven days. Swelling begins to appear in the non-injected paw of the first rats on Day 8. Using the paw volume determination technique (a technique in which rat paws are dippedin mercury to the hairline and the volume of displacement determined by a modified Van Arman mercury displacement method as described in the aforementioned paper of Wong et al), the time progress curve of volume changes in the non-injected (contralateral) paw is followed. […] The mean onset time for 100 rats is found to be 11.6 days with a standard deviation of 1.9 days and the frequency of onset time values distributed normally between Days 8 and 19. Thus, determinations of antiarthritic activity are made in the period Day 11 to Day 28.
(§3) For determination of anti-inflammatory properties two different evaluations are made: (a) the evaluation of paw volume during the Phase II and Phase III periods and, (b) the evaluation of osteogenic (bone) degenration during the Phase IV period.
For evaluation of paw volume, adjuvant arthritic rats with early but significant signs of arthritis in the contralateral paw are selected on Day 11 and randomly assigned to the various groups of 10 animals in each group. All test -animals are dosed-daily (per os) with the test compound, preferably as sodium salt, or in saline for 17 days (Days 11 to 27 inclusive). Control animals are dosed with an equivalent volume of saline. The paw volumes of the non-injected paws are determined initially on Day 11 and again on Days 15, 18, 22, 25, and 28. The paw volumes are then compared with normal paw volumes of adjuvant arthitic rats previously determined from a reference curve relating normal paw volume to body weight. The volume of each individual rat which is greater than the normal volume is utilized in the analysis of the data. Values for drug treated animals are expressed as a percent inhibition of the paw volume change relative to the mean value for saline controls. Data is evaluated statistically and ED50 values with 95 percent confidence limits are calculated. The method for statistical analysis is described in detail in the aforementioned paper of Wong et al. The term "ED50" refers to the dose of drug required to produce 50 percent antagonism of the paw volume changes observed in the saline treated adjuvant arthritis controls. Suppression of paw volume changes reflects anti-inflammatory and antiarthritic activity of a test drug.

The subject of test [2] is adjuvant arthritic rats. The test can be described thus: adjuvant arthritis test, evaluation of bone degeneration (osteogenic changes) in the non-injected hind paw. In kind it is in vivo, female Wistar, Lewis rats. The settings on record: Rattus norvegicus.
From the text: as §1, §2, §3
For evaluation of bone degenerations, normal and adjuvant arthritic rats are sacrificed under C02, after the paw volume measurements have been completed on Day 28. The hind legs are removed above the knees and skinned and the soft tissues dissected away with care to avoid injury to bone and articular structures. The leg bones are then immersed in 2 percent potassium hydroxide solution for approximately four to five days until the remaining soft tissues becomes properly macerated and/or transparent, and the bones are fully visible. The leg bones are stained with Alizarin Red (0.01 percent in 2 percent KOH) for eight hours, and then processed through increasing concentrations of glycerol in water (20, 40, 60, 80 and 100 percent) for purposes of clearing the tissues for microscopic observation. The distal end of the tibiae, the tarsals, metatarsals, phalanges, and sesamoids are evaluated under a Stereozoom Microscope (a special type of dissecting microscope, product of Bausch and Lomb).
Osteogenic changes for each bone (in 31 bone categories) in the non-injected hind paw are graded on a scale of from 0 to 10 (increasing numerical value corresponding to increasing severity of bone degeneration). A total bone degeneration score is obtained (maximum score/paw = 310 points) and then expressed as a percent score. The mean percent score (95 percent confidence limits) for saline control groups from 26 experiments (184 animals) is found to be 53.4 (50.9-55.9). Percent score values for drug treated animals are expressed as a percent inhibition relative to the mean for the saline control group. Data is evaluated statistically and ED50 values with 95 percent confidence limits are calculated.

Setting [3] is: Rattus norvegicus, 672 h, Table IX, Day 28, read-out: Percent Inhibition ± S.E. (Day 28).
Where [4] appears, read: Rattus norvegicus, read-out: Percent Inhibition of Paw Volume ± S.E.

On to `CC(=O)Nc1ccc(O)cc1` [Acetaminophen, acetaminophen], for which the inhibition at 50 mg/kg in test [1] (setting [3]) turned out to be 7.6 ± 6.1%; in test [1] (setting [4]) it was 0%; in test [2] (Acetaminophen 50 mg/kg/day alone, read-out: Percent Inhibition of Bone Degeneration ± S.E.) it was 0%. In addition, the inhibition at 200 mg/kg in test [1] (setting [3]) was determined as 29 ± 12.8%; in test [1] (setting [4]), 27.2 ± 15.5%; in test [2] (Acetaminophen 200 mg/kg/day alone, read-out: Percent Inhibition of Bone Degeneration ± S.E.), 12.6 ± 6.5%. Further, the inhibition at 800 mg/kg is 75.3 ± 3.9% in test [1] (setting [3]); 67.8 ± 5.7% in test [1] (setting [4]); 32.9 ± 3.4% in test [2] (Acetaminophen 800 mg/kg/day alone, read-out: Percent Inhibition of Bone Degeneration ± S.E.). The ED50 – broadly, the dose that gives a 50% effect, or the effect in half of the subjects – is 576 mg/kg in test [1] (Rattus norvegicus, po, 672 h, drug given alone per os, Day 28, read-out: ED50 Values and 95 Percent C.L.); 1670 mg/kg in test [2] (drug alone, suppression of osteogenic changes, data from several experiments pooled, read-out: ED50 and 95 percent C.L.). Moreover, the minimal effective dose in test [1] (Rattus norvegicus, given alone, statistically significant difference (p<0.05) from saline treated controls, read-out: minimum effective dose (MED)) was 320 mg/kg/day. Moreover, the “Percent Inhibition ± S.E. (Day 28)” value in test [1] (Table VII, Dose of Acetaminophen 100 alone, Day 28) came to 2.7 ±17.4%; in test [1] (Table VII, Dose of Acetaminophen 200 alone, Day 28), 6.6 ± 11.4%; in test [1] (Table VII, Dose of Acetaminophen 400 alone, Day 28) it was 31.6 ± 6.1%. The “dose of acetaminophen required to suppress the tolmetin ED50 by 50 percent” value in test [1] (acetaminophen given with tolmetin) is recorded as 35.3 (13.4-81.3) mg/kg/day.
On to `Cn1c(CC(=O)O)cc(Cl)c1C(=O)c1ccc(Cl)cc1` [4-chloro-5-p-chlorobenzoyl-1-nethyl-pyrrole-2-acetic acid], for which the median effective dose (ED50) in test [1] (Rattus norvegicus, 672 h, Table IX, ED50 of the pyrrole compound without acetaminophen, Day 28, read-out: ED50) turned out to be 0.054 mg/kg. For the same compound, the inhibition at 0.02 mg/kg/day in test [1] (Rattus norvegicus, 672 h, Table IX, pyrrole compound 0.02 mg/kg/day alone, Day 28, read-out: Percent Inhibition ± S.E. (Day 28)) is 18.6 ± 11.7%. In addition, in test [1] (Rattus norvegicus, 672 h, Table IX, pyrrole compound 0.06 mg/kg/day alone, Day 28, read-out: Percent Inhibition ± S.E. (Day 28)), the inhibition at 0.06 mg/kg/day was found to be 61.3 ± 5.3%. Besides, the inhibition at 0.18 mg/kg/day in test [1] (Rattus norvegicus, 672 h, Table IX, pyrrole compound 0.18 mg/kg/day alone, Day 28, read-out: Percent Inhibition ± S.E. (Day 28)) was 78.9 ± 8.7%.
For the compound `Cc1cc(CC(=O)O)n(C)c1C(=O)c1ccc(Cl)cc1` [1,4-dimethyl-5-p-chlorobenzoyl-pyrrole-2-acetic acid], the ED50 is 0.4 mg/kg in test [1] (Rattus norvegicus, 672 h, Table VII, ED50 of the pyrrole compound without acetaminophen, Day 28, read-out: ED50) and 0.728 mg/kg in test [1] (Rattus norvegicus, 672 h, Table VIII, ED50 of the pyrrole compound without Aspirin, Day 28, read-out: ED50). Further, the inhibition at 0.11 mg/kg/day in test [1] (Rattus norvegicus, 672 h, Table VII, pyrrole compound 0.11 mg/kg/day alone, Day 28, read-out: Percent Inhibition ± S.E. (Day 28)) stood at 27.4 ± 10.1%. Besides, the inhibition at 0.33 mg/kg/day in test [1] (Rattus norvegicus, 672 h, Table VII, pyrrole compound 0.33 mg/kg/day alone, Day 28, read-out: Percent Inhibition ± S.E. (Day 28)) stood at 45 ± 6%. For the same compound, the inhibition at 1 mg/kg/day in test [1] (Rattus norvegicus, 672 h, Table VII, pyrrole compound 1.0 mg/kg/day alone, Day 28, read-out: Percent Inhibition ± S.E. (Day 28)) was determined as 68 ± 7.8%. Moreover, the inhibition at 0.125 mg/kg/day in test [1] (Rattus norvegicus, 672 h, Table VIII, pyrrole compound 0.125 mg/kg/day alone, Day 28, read-out: Percent Inhibition ± S.E. (Day 28)) worked out at 17.5 ± 7.5%. In test [1] (Rattus norvegicus, 672 h, Table VIII, pyrrole compound 0.5 mg/kg/day alone, Day 28, read-out: Percent Inhibition ± S.E. (Day 28)), the inhibition at 0.5 mg/kg/day was 43.8 ± 11.8%. Further, in test [1] (Rattus norvegicus, 672 h, Table VIII, pyrrole compound 2.0 mg/kg/day alone, Day 28, read-out: Percent Inhibition ± S.E. (Day 28)), the inhibition at 2 mg/kg/day was determined as 68.2 ± 5.3%.
